Target: T1, Neutrophil elastase (Homo sapiens) (UniProt P08246)
T1 sequence (whole entry): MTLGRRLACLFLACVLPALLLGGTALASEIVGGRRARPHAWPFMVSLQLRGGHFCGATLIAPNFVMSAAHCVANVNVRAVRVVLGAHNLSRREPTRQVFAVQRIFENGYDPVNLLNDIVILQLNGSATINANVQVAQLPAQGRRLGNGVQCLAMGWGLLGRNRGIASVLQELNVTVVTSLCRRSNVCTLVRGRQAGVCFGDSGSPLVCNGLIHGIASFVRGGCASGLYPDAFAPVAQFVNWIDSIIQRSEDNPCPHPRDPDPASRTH
Test: Bimolecular rate constant of the interaction of compound with Human Leukocyte Elastase was evaluated

K obs / 1: 40 M⁻¹ s⁻¹
SMILES: CCOC(=O)C(F)N1C(=O)c2ccccc2C1=O (stereo unspecified)

Source: ChEMBL document CHEMBL1150004, “A general approach toward the design of mechanism-based inactivators of serine proteinases: inactivation of human leukocyte elastase by a phthalimide derivative” (Bioorg Med Chem Lett, 1993)
